# Source: US20220264883A1, “IMIDAZOTHIAZOLE COMPOUNDS AND METHODS FOR TREATING PLANT NEMATODE INFECTIONS” (The Governing Council of the University of Toronto, priority 2019, published 2022)
# Experiments:
# M. chitwoodi J2 larvae = test: Meloidogyne chitwoodi in vitro assays (J2 movement); assay type: in vivo; details: 45 μM, 2 days, relative to DMSO control
# Protocol: M. incognita (Kofoid & White) Chitwood Race 1 (originally isolated in Maryland) was used for all experiments, and was maintained on pepper (Capsicum annuum L.) cv. PA-136 in a greenhouse as previously described^64. Infective J2 juveniles were collected as described in ref.65. The microwell dose-response experiments were carried out similarly to previously described protocols^64, 66. In brief, 100 J2s, in 10 μL of deionized water, were added to the wells of 96-well polystyrene plates, after which 190 μL of deionized water containing dissolved chemical, or DMSO alone, was added to each well. The chemicals were tested at 45 μM, and the final concentration of DMSO in each well was 0.5% (v/v). The wells were covered with a plastic adhesive strip, and the lids of the plates were sealed with parafilm. The plates were incubated at 25° C. The mobile fraction of worms was quantified by counting the number of mobile and immobile worms after 2 days of incubation, and then dividing the number of mobile worms by the total number of worms in the well. Three technical replicates were performed for each treatment, and an average value for the mobile fraction of worms was calculated across the three replicates. The percent effectiveness at inhibiting nematode movement was calculated by dividing the average value for the chemical treatment by the average value for the DMSO control, then subtracting this value from 1, and then multiplying by 100.
# M. chitwoodi race 1 (the strain commonly found in the pacific northwest of the United States) was used for all experiments, and was maintained on tomato plants (Solanum lycopersicum ‘Rutgers’) as previously described^73. The M. chitwoodi in vitro assays were performed identically to the M. incognita in vitro assays (see above).
# HEK293 cells = test: HEK cell culture and dose-response experiments; assay type: cell-based, Human; details: non-target system; 48 hours, CellTiter-Blue
# Protocol: HEK293 cells were seeded into 96-well plates, at 5000 cells per well, in 100 μL total volumes of DMEM/10% FBS/1% PS media and grown overnight at 37° C. in the presence of 5% CO2. Compounds (0.5 μL volumes from appropriate source plates) were then added to cells, and growth was continued for an additional 48 hours. Following growth, 10 μL of CellTiter-Blue Viability reagent (Promega) was added to each well, and plates were incubated for an additional 4 hours at 37° C. in the presence of 5% CO2. Fluorescence measurements (560 nm excitation/590 nm emission) were then performed using a CLARIOstar Plate Reader (BMG Labtech) to quantify reagent reduction and estimate cell viability.
# C57BL/6 mice = test: Mouse studies (oral dosing, pathologies); assay type: in vivo; details: oral dose 50 mg/kg over several days
# Protocol: Female C57BL/6 mice (bred in house, breeding pairs originally purchased from Charles River, Canada) 6-8 weeks of age were used for all experiments. Animal experiments were approved by the University of Calgary's Animal Care Committee. Infected mice were orally gavaged with a 200 third stage Heligmosomoides polygyrus larvae (maintained in house. Original stock was a gift from Dr. Allen Shostak, University of Alberta, Canada) and euthanized on day 22 post infection. […] Mice were treated orally with 5 daily doses of exemplary compound Ia (50 mg/kg resuspended in DMSO). Control mice were given DMSO only as a control.
# M. chitwoodi = test: Meloidogyne chitwoodi infectivity assays (tomato roots in soil); assay type: in vivo; details: 45 μM in soil, 8 weeks, egg counts relative to DMSO control
# Protocol: An M. incognita population originally collected from grape (Vitis vinifera) in Parlier, Calif., was used for all experiments, and they were maintained on tomato plants (Solanum lycopersicum ‘Rutgers’) as previously described^73. Infective J2 juveniles were collected as described in^73. For the infectivity assays, 90 grams of soil (1:1 sand:loam mix) was added to each cell of several 6-cell plastic garden packs. The soil was drenched with 18 mL of deionized water containing dissolved chemical or DMSO alone. 2,500 infective J2 juveniles were then added to the soil in 2 mL of deionized water, for a total water volume of 20 mL. The final concentration of the chemicals in water was 45 μM. The DMSO concentration varied from 0.1% to 0.8% (v/v) depending on the stock concentration of the chemical. The highest DMSO concentration was used as the DMSO control. The J2s were incubated in the soil and chemical for 24 hours, after which two- to three-week old tomato seedlings were transplanted into the soil (one plant per cell). […] The number of eggs from each plant root was counted on a dissection microscope using a haemocytometer, and the number of eggs per milligram of root was calculated by dividing the total egg number by the mass of the dried root material. […] An average percent effectiveness value was then calculated across the two different batches carried out on different days. […]
SMILES,% effectiveness at reducing M. chitwoodi movement (M. chitwoodi J2 larvae) [%],HEK Cells LC50 (HEK293 cells),obvious pathologies in comparison with the solvent control (C57BL/6 mice),% effectiveness at inhibiting reproduction of M. chitwoodi (M. chitwoodi) [%]
Cc1csc2nc(-c3ccccc3)cn12 [Compound Ie],24.3,,,
Clc1ccc(-c2cn3ccsc3n2)cc1 [Ia],,inactive,did not exhibit any obvious pathologies,42.6
Fc1ccc(-c2cn3ccsc3n2)cc1 [Ib],37.5,,,
